According to patent US20250248970A1, “NOVEL SUBSTITUTED FLUORINATED N-PROPYL-PYRROLIDINE COMPOUNDS, PROCESSES FOR THEIR PREPARATION AND THERAPEUTIC USES THEREOF” (SANOFI, priority 2022, published 2025):

Key:
ERα = target: T1, ERα (Homo sapiens, UniProt P03372); experiment: Estrogen receptor degradation activity (breast cancer cell ERα in cell western assay); format: cell-based; conditions: MCF7 cells; for % Degradation At 0.3 μM: 4 hours, % of ERα levels decrease relative to fulvestrant
T1 construct: host or cells: MCF7
T1 sequence (P03372 1-595): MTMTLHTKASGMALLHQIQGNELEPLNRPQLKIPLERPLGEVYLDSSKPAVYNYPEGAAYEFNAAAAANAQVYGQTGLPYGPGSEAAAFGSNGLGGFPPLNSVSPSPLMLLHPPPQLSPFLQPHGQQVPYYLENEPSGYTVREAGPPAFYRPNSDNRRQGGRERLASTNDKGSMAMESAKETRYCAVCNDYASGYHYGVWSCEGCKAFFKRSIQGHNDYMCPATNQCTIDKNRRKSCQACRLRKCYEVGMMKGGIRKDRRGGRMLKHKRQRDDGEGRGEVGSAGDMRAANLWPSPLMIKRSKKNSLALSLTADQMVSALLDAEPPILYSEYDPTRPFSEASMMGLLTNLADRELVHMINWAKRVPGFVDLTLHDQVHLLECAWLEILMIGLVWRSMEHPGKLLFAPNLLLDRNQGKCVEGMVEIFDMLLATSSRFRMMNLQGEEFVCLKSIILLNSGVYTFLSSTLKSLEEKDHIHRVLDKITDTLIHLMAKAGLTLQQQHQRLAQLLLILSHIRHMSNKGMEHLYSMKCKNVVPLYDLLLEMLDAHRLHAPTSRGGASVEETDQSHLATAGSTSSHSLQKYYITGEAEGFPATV
How it was run: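 MCF7 cells in phenol red-free MEM alpha with 5% charcoal-stripped FBS were exposed for 4 h to 9-point 1:5 dilutions (0.3–0.0000018 μM final). In-cell western: anti-ERα immunofluorescence normalized to Syto-64 DNA stain, scaled between DMSO and 0.1 μM fulvestrant; IC50 as 50% ERα degradation, in nM.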

CYP3A4 = CYP3A4 induction potential for ADME profile evaluation (CYP3A4 mRNA by RT-PCR in primary human hepatocytes); format: in vitro ADME; conditions: approximately 48 hours, 0.3-10 μM, relative to 10 μM rifampicin
Procedure: Such test is based, for example, on the quantification of CYP3A4 mRNA induction performed by RT-PCR analysis. Said % Emax may be calculated as detailed in the illustrative part under the following formula:
[formula] • ECompound: relative fold mRNA expression following treatment with test compound, • EPositive control: relative fold mRNA expression following reference inducer i.e., 10 μM rifampicin, • EVehicle control: relative fold mRNA expression following vehicle treatment i.e., 0.1% DMSO, and • E is the efficiency of the quantitative PCR.
Said test evaluates the potential induction effect of the tested compounds on CYP3A4 gene expression in primary cultures of human hepatocytes from one or two donors with established concentration-dependent response to the reference inducer, rifampicin.
Before seeding, cell viability was estimated using the Trypan blue dye exclusion test. Hepatocytes were seeded on collagen I-coated 96-well plates at a density of 70 000 cells/well in 100 μL of plating medium for at least 4 hours under a humidified atmosphere of CO2/air (5%/95%), at 37° C. After the cell attachment period, the plating medium was removed, and the hepatocytes were treated daily for 2 consecutive days (approximately 48 hours), with 100 μL per well of fresh culture medium containing either the vehicle control (0.1% DMSO) or the investigated compounds at four concentrations 0.3, 1, 3 and 10 μM, or rifampicin, the reference inducer at 10 μM. All incubations were performed in duplicates.
Ten mM stock solutions of the different compounds were diluted to obtain 0.3, 1 and 3 mM daughter solutions. The day of the experiment, stock solutions were diluted 1000-fold in the incubation/culture medium to achieve final concentrations of 0.3, 1, 3 and 10 μM.
After the 48-hour incubation period with the test compounds, the cell culture medium was removed, and the cells were lysed to release the RNA for CYP3A4 gene expression assessment. Quantification of CYP3A4 mRNA induction was performed by RT-PCR analysis.
Total RNA was extracted from hepatocytes using the King Fisher™ Flex Purification System with the MagMAX mirVana Total RNA Isolation kit (Thermo Fisher Scientific, USA). RNA was quantified by fluorimetry using the Quantifluor RNA System (Promega, USA) and cDNAs were synthesized from […] total RNA using the iScript Reverse Transcription Supermix for RT-qPCR from Biorad (France) at 42° C. for 30 min. cDNA samples were then diluted in water (1:5) and 5 μL of each sample was used for real-time PCR amplification by using the SYBR Green kit from Biorad (France). The following program was used: a denaturation step at 95° C. for 30 sec, and 40 cycles of PCR (denaturation, 95° C., 10 sec and annealing and extension, 58° C., 1 min). In all cases, the quality of the PCR product was assessed by monitoring a fusion step at the end of the run. Human forward and reverse primer sequences used were: 5′-CCT-GGC-ACC-CAG-CAC-AAT-3′ and 5′-GGG-CCG GAC-TCG-TCA-TAC-3′ for actin, 5′-CAC-AAA-CG-GAG-GCC-TTT-TG-3′ and 5′-ATC-CAT-GCT-GTA-GGC-CCC-AA-3′ for CYP3A4.
Cq (quantification cycle) values were determined using a multi-variable, non-linear regression model to individual well traces and then using this model an optimal Cq value was computed. Cq values are inversely proportional to the amount of target nucleic acid in the sample (i.e., lowest Cq level corresponds to the greatest amount of target nucleic acid in the sample). Cq of reference gene (in this study human actin) was also used as positive control of quantitative PCR.
The extent of induction or % of Emax, resulting from treatment with test compounds was calculated under the following formula: […]

SMILES | % Degradation At 0.3 μM (ERα) | degradation activity on estrogen receptors (in words) (ERα; tested at 0.3 μM) | CYP3A4 induction Emax (%) (CYP3A4)
O=C(O)c1ccc2c(c1)CCCC(c1ccc(Cl)cc1Cl)=C2c1ccc(N[C@H]2CCN(CCCF)C2)cc1 [Compound C2, (S)-8-(2,4-Dichlorophenyl)-9-(4-((1-(3-fluoropropyl)pyrrolidin-3-yl)amino)phenyl)-6,7-dihydro-5H-benzo[7]annulene-3-carboxylic acid, reference compound] | 89% | significant degradation activity | 85%
CC1(C)CC=C(C2=C(c3ccc(CC4CCN(CCCF)C4)cc3)c3ccc(C(=O)O)cc3CCC2)CC1.Cl (single isomer, unassigned; isomer 1) [Compound 11, 8-(4,4-dimethylcyclohex-1-en-1-yl)-9-(4-((1-(3-fluoropropyl)pyrrolidin-3-yl)methyl)phenyl)-6,7-dihydro-5H-benzo[7]annulene-3-carboxylic acid hydrochloride, Isomer 1] | 90% | – | 11%
Cc1cccc(C2=C(c3ccc(CC4CCN(CCCF)C4)cc3)c3ccc(C(=O)O)cc3CCC2)c1C(F)(F)F (single isomer, unassigned; isomer 1) [Compound 30, 9-(4-((1-(3-fluoropropyl)pyrrolidin-3-yl)methyl)phenyl)-8-(3-methyl-2-(trifluoromethyl)phenyl)-6,7-dihydro-5H-benzo[7]annulene-3-carboxylic acid, Isomer 1] | 85% | – | 15%
